Assay results: patent US20140162968A1, “METHOD FOR SCREENING OF AGENT FOR TREATING OR PREVENTING OBESITY” (priority 2011, published 2014)

Tests used:
[1] = tested on: lipase in the small intestines; conditions: background statement; cited from earlier work
[2] = Body weight change and daily food uptake in rats orally administered anthocyanin for 40 days; format: in vivo, rat; conditions: for weight increase: male Sprague-Dawley rats, control 79.33 g; for weight increase / weight at end of period: 40 days; for weight at end of period: control 116.33 g
Method: For use in assay for the preventive and therapeutic effect of anthocyanin on obesity, male Sprague-Dawley rats, 60 days old (the Experimental Animal Breeding Center of the Gyeongsang National University, Jinju, Korea)) were divided groups of four which were then orally administered with anthocyanin at a dose of 6 mg and 24 mg, respectively, or not administered with anthocyanin for a control. They were maintained for 40 days in a temperature-controlled condition with lighting 06:00-20:00. While being maintained, the rats in each group were monitored for weight change and daily food uptake, and the results are shown in FIG. 1.

[3] = tested on: epididymal white adipose tissue; experiment: Epididymal white adipose tissue adipocyte number per unit area (hematoxylin-eosin staining); format: in vivo, rat; conditions: epididymal WAT, 40 days, control 18.75
Method: For hematoxylin-eosin staining, an epididymal white adipose tissue (WAT) was fixed at 4° C. for 72 hrs in ice-chilled 1× PBS containing 4% para-formaldehyde, and immersed at 4° C. for 72 hrs in 20% sucrose sucrose phosphate buffer for cryoprotection. The fixed tissue was frozen with O.C.T compound (A. O. USA), and 10 μm coronal sections were made in coronal planes (Leica cryostat CM 3050, Germany). The sections were mounted on a probe-on, positively charged slide at room temperature and stored at −70° C. until use.
The animals bred as in Example 1 were collectively sacrificed at 10:00 AM 40 days after the oral administration, and epididymal white adipose tissue (WAT) was excised from each sacrificed animal and used for comparison of obesity. The epididymal WAT was fixed at 4° C. for 72 hrs in ice-chilled 1× PBS containing 4% para-formaldehyde, and immersed at 4° C. for 72 hrs in a 20% sucrose phosphate buffer for cryoprotection. The fixed tissue was frozen with O.C.T compound (A. O. USA), and 10 μm coronal sections were made in coronal planes (Leica cryostat CM 3050, Germany). The sections were mounted on probe-on, positively charged slides and thawed at room temperature for 3 hrs. […] Cover slips were mounted on the slides which were observed under a […] at 400× magnification.

[4] = tested on: GABAB receptor; experiment: Expression of GABAB receptor in the hypothalamus by Western blotting; format: in vivo, rat; conditions: rats administered anthocyanin orally, 40 days, versus control; Western blot densitometry
Method: To examine the effect of an obesity prevention and treatment agent on the expression of GABAB receptor, the animals maintained as in Example 1 were collectively sacrificed at 10:00 AM 40 days after the oral administration, and the hypothalamus was excised from each of them. The hypothalamic sample was homogenized in 0.2 M PBS containing a protease inhibitor cocktail. Protein levels were measured using a Bio-Rad protein analysis solution, and after two rounds of ultracentrifugation at 4° C. and 12,000 rpm for 20 min, the supernatants containing proteins were separated. […] This membrane was blocked with 5% (v/v) skim milk to reduce non-specific binding, and incubated with a primary goat anti-GABABR1 antibody (1:200; Santa Cruz Biotechnology, Santa Cruz, Calif., USA) and an anti-beta-actin antibody for quantitative comparison, followed by immune reaction with a secondary HRP (horseradish peroxidase)-conjugated anti-goat and anti-rabbit IgG (1:1000; Santa Cruz Biotechnology, Santa Cruz, Calif., USA). Protein levels were determined by chemiluminescence using ECL-detecting reagent (Amersham Pharmacia Biotech, Western blotting detection reagents). Western blots on the X-ray film were analyzed by densitometry using computer-based Sigma Gel (SPSS Inc. Chicago, USA), and the results are shown in FIG. 3.

[5] = tested on: neuropeptide Y; experiment: Expression of neuropeptide Y in the hypothalamus by Western blotting; format: in vivo, rat; conditions: oral anthocyanin 24 mg, 40 days, versus control; Western blot
[6] = tested on: PKA-α; experiment: Expression of PKA-α in the hypothalamus by Western blotting; format: in vivo, rat; conditions: oral anthocyanin 24 mg, 40 days, versus control; Western blot
[7] = tested on: p-CREB; experiment: Expression of p-CREB in the hypothalamus by Western blotting; format: in vivo, rat; conditions: oral anthocyanin 24 mg, 40 days, versus control; Western blot

Compound	reduction of fat absorption [1]	weight increase ([2]; oral anthocyanin 6 mg)	weight increase ([2]; oral anthocyanin 24 mg)	weight at end of period ([2]; oral anthocyanin 6 mg, from 32.33 g)	weight at end of period ([2]; oral anthocyanin 24 mg, from 28.33 g)	daily food uptake ([2]; oral anthocyanin 24 mg, control 20.03 g)	number of adipocytes per unit area ([3]; oral anthocyanin 6 mg)	number of adipocytes per unit area ([3]; oral anthocyanin 24 mg)	expression level of GABAB receptor in the hypothalamus [4]	expression level of neuropeptide Y in the hypothalamus [5]	expression level of PKA-α in the hypothalamus [6]	expression level of p-CREB in the hypothalamus [7]
CCCCCCCCCCC[C@@H](C[C@@H]1OC(=O)[C@H]1CCCCCC)OC(=O)[C@H](CC(C)C)NC=O [Orlistat]	about 30%											
anthocyanin		69 g	69.67 g	101.33 g	98 g	16.43 g	22.47 cells/250 mm^2	22.8 cells/250 mm^2	increased	decreased	decrease	increase
